Measured values from patent US12042655B2, “Systems for detecting catheter movement” (Cardionomic, Inc., priority 2017, dated 2024).

System: normal, non-HF ovine model
Assay: Change in right and left ventricle contractility after injection, with max(dP/dt) pressure as surrogate and heartbeat-by-heartbeat RV/LV correlation
Assay type: in vivo
Settings: max(dP/dt) used as surrogate for contractility
Excerpt: The correlation was a heartbeat-by-heartbeat analysis. Pressure measurements, taken by a Millar catheter comprising a MEMS pressure sensor, in units of max(dP/dt) was used as a surrogate for contractility. The first change, a dobutamine injection, provided a very high contractility increase greater than 500%. The average correlation between right ventricle contractility and left ventricle contractility was very good at 0.91, where 1.00 is a perfect correlation. Accordingly, if a subject is given a dobutamine injection, measuring changes to right ventricle contractility can provide accurate information about changes to left ventricle contractility. The first change was repeated three times. The second change, calcium injection at 5 mL, provided a contractility increase of about 20%. […] The average correlation between right ventricle contractility and left ventricle contractility using a Millar (MEMS) sensor on a catheter was very good at 0.91. The average correlation between right ventricle contractility and left ventricle contractility using a fluid-filled lumen of a Swan-Ganz catheter in communication with an external pressure sensor was also very good at 0.87. Accordingly, under certain circumstances such as measurement of an animal (normal, non-HF ovine model) model, if a subject is given a calcium injection, measuring changes to right ventricle contractility with a MEMS sensor or a fluid filled lumen can provide accurate information about changes to left ventricle contractility.

## calcium [Calcium Injection]
  Contractility % Increase: ~20%
Listed as calcium injection
  Contractility % Increase: about 20%

## CC(CCc1ccc(O)cc1)NCCc1ccc(O)c(O)c1 (stereo not shown) [Dobutamine Injection, dobutamine]
  Contractility % Increase: >500%
Listed as dobutamine injection
  Contractility % Increase: greater than 500%
